{
  "source": "patent US20240382487A1",
  "about": "“NOVEL COPI/ARF1-LIPOLYSIS PATHWAY INHIBITOR AND COMPOUND FOR ERADICATING CANCER STEM CELLS AND INDUCING DAMP-MEDIATED ANTI-TUMOR IMMUNE RESPONSE” (FUDAN UNIVERSITY, priority 2020, published 2024)",
  "key": {"mice": {"system": "mice", "experiment": "Toxicity in mice, oral gavage", "assay_type": "in vivo", "conditions": "mouse, in vivo, po"}, "[1]": {"system": "chemokines and T cell activation markers", "experiment": "Chemokines and T cell activation markers by quantitative RT-PCR in MYC-ON mice", "assay_type": "in vivo", "procedure": "Chemokines and T cell activation markers were measured by quantitative RT-PCR in DMSO or du102 treated MYC-ON mice. CD8 T cell infiltration and immunostimulatory cytokine expression were increased as measured by quantitative RT-PCR. […] CCL5 and CXCL10 chemokines stimulate CD4+ and CD8+ lymphocytes tumor infiltration (Parkes et al., 2017), and CXCL10 and CXCL11 are T cell associated chemokines."}, "B16-F10 melanoma": {"system": "B16-F10 melanoma", "experiment": "Lung metastasis of B16-F10 melanoma after tail vein injection", "assay_type": "in vivo, C57B/6 mice", "conditions": "B16-F10 cells treated with 10 μM Du 102, tail vein injection; lungs removed 15 days after injection", "procedure": "B16-f10 tumor cells (treated with DMSO or 10 μM Du 102 treatment) was transferred intravenously via tail vein injection. Lungs were removed 15 days after injection and fixed in fekete's solution overnight. Three investigators in a blinded manner statistically available (Table 17)."}},
  "data": [
    {"substance": "1H-indolo-5-carbaldehyde 5,6,7,8,9,10-hexahydrocycloocta[4,5]thieno[2,3-d]pyrimidin-4-ylhydrazone [Du 102]", "values": [
      {"measurement": "toxic effects", "setting": "mice", "value": "no toxic effects were observed"},
      {"measurement": "Ccl5 expression", "setting": "[1]; DMSO 1.0", "value": 2.4},
      {"measurement": "Col22 expression", "setting": "[1]; DMSO 1.0", "value": 2.5},
      {"measurement": "Cxcl11 expression", "setting": "[1]; DMSO 1.0", "value": 2.8},
      {"measurement": "GzmA expression", "setting": "[1]; DMSO 1.0", "value": 2.3},
      {"measurement": "GzmB expression", "setting": "[1]; DMSO 1.0", "value": 1.9},
      {"measurement": "IL-1β expression", "setting": "[1]; DMSO 1.0", "value": 2.5},
      {"measurement": "PD-L1 expression", "setting": "[1]; DMSO 1.0", "value": 0.4},
      {"measurement": "Perforin expression", "setting": "[1]; DMSO 1.0", "value": 2.2},
      {"measurement": "Cxcl10 expression", "setting": "[1]; DMSO 1.1", "value": 3.1},
      {"measurement": "INFγ expression", "setting": "[1]; DMSO 1.1", "value": 3.2},
      {"measurement": "lung metastases (surface tumor number)", "setting": "B16-F10 melanoma", "value": 5}
    ]}
  ]
}
